The source of these data is BindingDB's records for doi:10.1021/jm900130m (Universita Del Piemonte Orientale, 2009).

Broadly, the EC50 is the concentration at which the effect is half-maximal. The low end stands for greater potency, the high end for weaker potency. In general, Ki refers to a dissociation constant, usually derived from enzyme kinetics or from competition with a known ligand. Read a high Ki as a looser hold on the target.

Assay [1] addresses Transient receptor potential cation channel subfamily V member 1 (Homo sapiens, UniProt Q8NER1). As to the kind of experiment: TRPV1 Channel Activity Assay. The procedure: The effect of the substances on Ca2+ influx was determined by using HEK-293 cells stably overexpressing recombinant human TRPV1 cDNA. The cells were loaded with Fluo-4, a selective intracellular fluorescent probe for Ca2+. Experiments were carried out by measuring cell fluorescence before and after the addition of the test compounds at various concentrations. Agonist activity was determined in comparison to the maximum Ca2+ influx due to the application of 4 uM ionomycin. EC50 values were determined as the concentration of test substances required to produce half-maximal increases in [Ca2+]i. All determinations were at least performed in triplicate. Curve fitting (sigmoidal dose-response variable slope) and parameter estimation were performed with GraphPad Prism (GraphPad Software Inc., San Diego, CA).

Another assay concerns the target Cannabinoid receptor 2 (Homo sapiens, UniProt P34972). As to the kind of experiment: CB Receptor Radioligand Binding Assay (Ki). As for the experimental part:
IC50 values for test compounds were determined from nonlinear regression analysis of data collected from ligand displacement experiments. The inhibition constant (Ki) was calculated from IC50 value by the Cheng and Prusoff equation.

Each structure is given as a SMILES string.

Transient receptor potential cation channel subfamily V member 1, sequence (Q8NER1 whole entry): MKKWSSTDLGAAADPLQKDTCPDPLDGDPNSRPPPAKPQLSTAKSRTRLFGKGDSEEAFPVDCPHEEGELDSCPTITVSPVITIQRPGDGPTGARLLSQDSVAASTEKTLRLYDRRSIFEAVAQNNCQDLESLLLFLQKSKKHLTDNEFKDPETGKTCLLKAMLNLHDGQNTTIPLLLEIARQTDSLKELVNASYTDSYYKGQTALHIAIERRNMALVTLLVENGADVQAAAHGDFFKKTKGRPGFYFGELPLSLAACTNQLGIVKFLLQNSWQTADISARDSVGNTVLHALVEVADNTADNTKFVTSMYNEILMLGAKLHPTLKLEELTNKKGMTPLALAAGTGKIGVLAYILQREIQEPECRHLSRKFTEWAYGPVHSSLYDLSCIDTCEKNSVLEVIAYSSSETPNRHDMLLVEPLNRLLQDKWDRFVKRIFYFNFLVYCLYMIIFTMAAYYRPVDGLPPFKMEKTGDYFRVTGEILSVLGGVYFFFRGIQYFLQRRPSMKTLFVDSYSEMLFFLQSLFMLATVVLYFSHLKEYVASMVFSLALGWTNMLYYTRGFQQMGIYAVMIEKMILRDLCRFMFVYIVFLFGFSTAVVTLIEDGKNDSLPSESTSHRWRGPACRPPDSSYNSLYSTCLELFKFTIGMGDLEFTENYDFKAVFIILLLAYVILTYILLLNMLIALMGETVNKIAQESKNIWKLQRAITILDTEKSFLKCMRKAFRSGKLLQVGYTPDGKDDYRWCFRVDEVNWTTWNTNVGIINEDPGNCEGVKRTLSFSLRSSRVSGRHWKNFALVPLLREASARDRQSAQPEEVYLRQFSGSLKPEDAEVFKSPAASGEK
Cannabinoid receptor 2, sequence (P34972 whole entry): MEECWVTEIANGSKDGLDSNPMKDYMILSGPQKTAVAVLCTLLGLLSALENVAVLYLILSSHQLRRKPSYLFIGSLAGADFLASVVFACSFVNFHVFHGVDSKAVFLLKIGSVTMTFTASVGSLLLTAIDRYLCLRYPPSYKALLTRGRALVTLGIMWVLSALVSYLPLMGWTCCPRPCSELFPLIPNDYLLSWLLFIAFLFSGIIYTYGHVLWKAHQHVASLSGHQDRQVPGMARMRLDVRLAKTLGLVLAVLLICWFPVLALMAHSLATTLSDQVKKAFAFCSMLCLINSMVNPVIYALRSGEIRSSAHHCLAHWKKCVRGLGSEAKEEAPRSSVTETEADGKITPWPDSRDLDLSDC

In assay [1], `CCCCCCCC/C=C\CCCCCCCC(=O)N[C@H]1C[C@@H]1O` [cyclopropanolamide, 11b] showed an EC50 of 19 nM. On Cannabinoid receptor 2, this molecule registered a Ki of 2420 nM.

For `CCCCCCCC/C=C\CCCCCCCC(=O)N[C@H]1C[C@H]1O` [cyclopropanolamide, 14b], the EC50 in assay [1] is 180 nM. The same molecule came in with a Ki at Cannabinoid receptor 2 of 1630 nM.
